Assay results as given in the NIST ThermoML archive (doi:10.1021/acs.jced.9b00074).

Experiment: xn = mol fraction of the nth substance listed
Conditions: 100 kPa, Liquid; for viscosity: Falling or rolling sphere viscometry; for mass density: Vibrating tube method

OC1CCCC1 [cyclopentanol] + C1C[C@@H]2[C@H]3CC[C@H](C3)[C@@H]2C1
Conditions | mass density [kg/m3] | viscosity [mPa·s]
293.15 K, x1 = 0.101 | 935.59 | 3.091
293.15 K, x1 = 0.201 | 935.84 | 3.26
293.15 K, x1 = 0.296 | 936.28 | 3.471
293.15 K, x1 = 0.3962 | 937.08 | 3.794
293.15 K, x1 = 0.5016 | 938.1 | 4.304
293.15 K, x1 = 0.6017 | 939.39 | 5.009
293.15 K, x1 = 0.7011 | 940.96 | 5.976
293.15 K, x1 = 0.7968 | 942.64 | 7.24
293.15 K, x1 = 0.9005 | 944.8 | 9.125
298.15 K, x1 = 0.101 | 931.59 | 2.829
298.15 K, x1 = 0.201 | 931.81 | 2.917
298.15 K, x1 = 0.296 | 932.23 | 3.093
298.15 K, x1 = 0.3962 | 932.99 | 3.355
298.15 K, x1 = 0.5016 | 934 | 3.762
298.15 K, x1 = 0.6017 | 935.27 | 4.32
298.15 K, x1 = 0.7011 | 936.86 | 5.083
298.15 K, x1 = 0.7968 | 938.57 | 6.076
298.15 K, x1 = 0.9005 | 940.78 | 7.555
303.15 K, x1 = 0.101 | 927.56 | 2.564
303.15 K, x1 = 0.201 | 927.75 | 2.623
303.15 K, x1 = 0.296 | 928.14 | 2.774
303.15 K, x1 = 0.3962 | 928.88 | 2.987
303.15 K, x1 = 0.5016 | 929.87 | 3.316
303.15 K, x1 = 0.6017 | 931.12 | 3.761
303.15 K, x1 = 0.7011 | 932.71 | 4.367
303.15 K, x1 = 0.7968 | 934.45 | 5.154
303.15 K, x1 = 0.9005 | 936.7 | 6.316
308.15 K, x1 = 0.101 | 923.52 | 2.329
308.15 K, x1 = 0.201 | 923.67 | 2.376
308.15 K, x1 = 0.296 | 924.03 | 2.499
308.15 K, x1 = 0.3962 | 924.74 | 2.674
308.15 K, x1 = 0.5016 | 925.71 | 2.941
308.15 K, x1 = 0.6017 | 926.94 | 3.298
308.15 K, x1 = 0.7011 | 928.53 | 3.78
308.15 K, x1 = 0.7968 | 930.28 | 4.407
308.15 K, x1 = 0.9005 | 932.57 | 5.324
313.15 K, x1 = 0.101 | 919.47 | 2.122
313.15 K, x1 = 0.201 | 919.57 | 2.156
313.15 K, x1 = 0.296 | 919.9 | 2.261
313.15 K, x1 = 0.3962 | 920.57 | 2.404
313.15 K, x1 = 0.5016 | 921.52 | 2.62
313.15 K, x1 = 0.6017 | 922.73 | 2.908
313.15 K, x1 = 0.7011 | 924.31 | 3.296
313.15 K, x1 = 0.7968 | 926.07 | 3.796
313.15 K, x1 = 0.9005 | 928.4 | 4.527
318.15 K, x1 = 0.101 | 915.4 | 1.94
318.15 K, x1 = 0.201 | 915.45 | 1.965
318.15 K, x1 = 0.296 | 915.74 | 2.053
318.15 K, x1 = 0.3962 | 916.37 | 2.171
318.15 K, x1 = 0.5016 | 917.29 | 2.348
318.15 K, x1 = 0.6017 | 918.48 | 2.58
318.15 K, x1 = 0.7011 | 920.05 | 2.893
318.15 K, x1 = 0.7968 | 921.82 | 3.293
318.15 K, x1 = 0.9005 | 924.18 | 3.878
323.15 K, x1 = 0.101 | 911.31 | 1.779
323.15 K, x1 = 0.201 | 911.3 | 1.799
323.15 K, x1 = 0.296 | 911.55 | 1.871
323.15 K, x1 = 0.3962 | 912.15 | 1.968
323.15 K, x1 = 0.5016 | 913.03 | 2.112
323.15 K, x1 = 0.6017 | 914.19 | 2.302
323.15 K, x1 = 0.7011 | 915.74 | 2.554
323.15 K, x1 = 0.7968 | 917.51 | 2.876
323.15 K, x1 = 0.9005 | 919.9 | 3.346
328.15 K, x1 = 0.101 | 907.2 | 1.639
328.15 K, x1 = 0.201 | 907.12 | 1.65
328.15 K, x1 = 0.296 | 907.33 | 1.711
328.15 K, x1 = 0.3962 | 907.88 | 1.791
328.15 K, x1 = 0.5016 | 908.73 | 1.908
328.15 K, x1 = 0.6017 | 909.87 | 2.063
328.15 K, x1 = 0.7011 | 911.39 | 2.268
328.15 K, x1 = 0.7968 | 913.16 | 2.527
328.15 K, x1 = 0.9005 | 915.56 | 2.906
333.15 K, x1 = 0.101 | 903.08 | 1.514
333.15 K, x1 = 0.201 | 902.92 | 1.521
333.15 K, x1 = 0.296 | 903.08 | 1.569
333.15 K, x1 = 0.3962 | 903.59 | 1.635
333.15 K, x1 = 0.5016 | 904.4 | 1.732
333.15 K, x1 = 0.6017 | 905.5 | 1.858
333.15 K, x1 = 0.7011 | 907 | 2.023
333.15 K, x1 = 0.7968 | 908.75 | 2.233
333.15 K, x1 = 0.9005 | 911.17 | 2.54
